Reference: PubChem BioAssay (NCI)
Values joined by “and” are separate entries in the source; they are usually repeats but may differ in a detail not shown here. Identical values can stand only once.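 Test compounds were applied to cells in 96-well plates for 48 hours at 5 doses. GI50 = concentration required for 50% inhibition of growth. Definition used: TGI = concentration required for complete inhibition of growth.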

Key:
Experiment in all cases: NCI anticancer screen, dose series, 48 h
SK-MEL-28 melanoma = tested on: SK-MEL-28 melanoma
UACC-62 melanoma = tested on: UACC-62 melanoma
UO-31 renal = tested on: UO-31 renal
BT-549 breast = tested on: BT-549 breast
SF-268 CNS = tested on: SF-268 CNS
NCI-H23 lung = tested on: NCI-H23 lung
PC-3 prostate = tested on: PC-3 prostate
OVCAR-8 ovarian = tested on: OVCAR-8 ovarian

Structure (SMILES)	GI50 (SK-MEL-28 melanoma)	TGI (SK-MEL-28 melanoma)	GI50 (UACC-62 melanoma)	TGI (UACC-62 melanoma)	GI50 (UO-31 renal)	TGI (UO-31 renal)	GI50 (BT-549 breast)	TGI (BT-549 breast)	GI50 (SF-268 CNS)	TGI (SF-268 CNS)	GI50 (NCI-H23 lung)	TGI (NCI-H23 lung)	GI50 (PC-3 prostate)	TGI (PC-3 prostate)	GI50 (OVCAR-8 ovarian)	TGI (OVCAR-8 ovarian)
CC(C)(CCN=C(N)Nc1ccccn1)c1ccc(C(F)(F)F)cc1	15.8 µM	30.6 µM	15.7 µM	29.8 µM	10.7 µM	22.7 µM	15.1 µM	31.2 µM	16.5 µM	35.6 µM	12.7 µM	27.6 µM	14.2 µM	28.9 µM	17.7 µM	33.2 µM
CCN(CC)CCOc1ccc(/C=C2\C[C@H]3[C@H]4CC=C5C[C@@H](O)CC[C@]5(C)[C@H]4CC[C@]3(C)[C@H]2O)cc1OC	7.74 µM	> 50 µM	7.53 µM	14.5 µM	7.23 µM	18 µM	–	–	14.9 µM	47 µM	11.2 µM	23.9 µM	–	–	12.9 µM	26.5 µM
O=C(O)C1C2C=CC(C2)C1C(=O)O (centres undefined)	> 100 µM	> 100 µM	> 100 µM	> 100 µM	> 100 µM	> 100 µM	> 100 µM	> 100 µM	> 100 µM	> 100 µM	–	–	> 100 µM	> 100 µM	> 100 µM	> 100 µM
COc1ccc2c(c1)C1OCCNC1CC2 (centres undefined)	–	> 100 µM	–	> 100 µM	–	> 100 µM	–	> 100 µM	–	> 100 µM	–	> 100 µM	–	> 100 µM	–	> 100 µM
O=S(=O)(c1ccc(Br)cc1)N1CCN(S(=O)(=O)c2ccc(Br)cc2)CC1	–	> 100 µM	–	> 100 µM	–	> 100 µM	–	> 100 µM	–	> 100 µM	–	> 100 µM	–	> 100 µM	–	> 100 µM
NCCCn1c2c(c3ccc([N+](=O)[O-])cc3c1=O)C(=O)c1cc(-c3ccccc3)ccc1-2	1.51 µM	3.13 µM	1.55 µM	3 µM	1.73 µM	3.41 µM	2.09 µM	3.77 µM	–	–	1.29 µM	2.88 µM	1.35 µM	2.71 µM	0.31 µM	0.884 µM
NCCCCCCCCCCCn1c2c(c3ccccc3c1=O)C(=O)c1ccccc1-2	2.27 µM	4.82 µM	16.9 µM	35 µM	2.01 µM	4.07 µM	20.3 µM	41.4 µM	6.05 µM	49.1 µM	11.6 µM	32 µM	2.26 µM	7.12 µM	–	–
O=C1CCCCC=C1C[N+](=O)[O-]	28.5 µM	92 µM	18.7 µM	34.6 µM	38.2 µM	> 100 µM	26 µM	61.4 µM	30.8 µM	> 100 µM	27.5 µM	69.9 µM	41.1 µM	> 100 µM	26.6 µM	> 100 µM
C1COCCOCCOCCOCCOCCO1.[Cl][Sn]([Cl])([c]1ccccc1)[c]1ccccc1	2 µM	4.19 µM	1.86 µM	4.12 µM	14.1 µM	27.2 µM	–	–	2.8 µM	8.65 µM	2.97 µM	8.84 µM	–	–	4.97 µM	16.4 µM
CN1CC[C@]2(c3cccc(O)c3)CC(=O)/C(=C/c3ccccc3)[C@H]1C2	–	12.8 µM	3.06 µM	12.7 µM	2 µM	9.83 µM	3.64 µM	14.5 µM	6.04 µM	18.2 µM	2.87 µM	10.8 µM	3.22 µM	12.9 µM	–	9.46 µM
Cc1[nH]c(C(=O)Nc2ccccc2OC2CCNCC2)c(Cl)c1Cl	1.01 µM	1.97 µM	0.895 µM	1.6 µM	0.656 µM	1.32 µM	0.895 µM	1.7 µM	0.76 µM	1.65 µM	1.52 µM	5.64 µM	1.39 µM	5.23 µM	1.07 µM	2.4 µM
NC1CCC(Nc2nc(NCc3cc(Cl)ccc3O)c3ncn(C4CCCC4)c3n2)CC1 (centres undefined)	0.153 µM	0.34 µM	0.149 µM	0.335 µM	0.227 µM	0.599 µM	0.262 µM	0.877 µM	0.188 µM	0.52 µM	0.153 µM	0.478 µM	0.16 µM	0.592 µM	–	–
c1cc(CSSCc2ccncc2)ccn1	–	> 100 µM	–	> 100 µM	–	> 100 µM	–	> 100 µM	–	> 94.3 µM	–	> 93.2 µM	–	> 100 µM	–	> 100 µM
COc1cc2nc(-c3ccc(Cl)cc3)cc(OCCCN3CCCC3)c2cc1OC	1.48 µM	4.28 µM	2.03 µM	4.57 µM	1.72 µM	6.63 µM	1.77 µM	7.37 µM	2.53 µM	15.5 µM	2.45 µM	12.1 µM	1.76 µM	10.3 µM	1.19 µM	16.1 µM
CSCC[C@H](NC(=O)[C@H](CC(C)C)NC(=O)[C@@H](Cc1ccccc1)NC(=O)CNC(=O)[C@@H](NC(=O)[C@H](C)NC(=O)[C@H](Cc1c[nH]c2ccccc12)NC(=O)[C@H](CCC(N)=O)NC(=O)[C@H](N)CC(N)=O)C(C)C)C(N)=O	–	> 12.5 µM	–	> 12.5 µM	–	–	–	–	–	> 12.5 µM	–	> 12.5 µM	–	> 12.5 µM	–	> 12.5 µM
N#CC1(Nc2ccc(-c3ccc(NC4(C#N)CCCC4)cc3)cc2)CCCC1	–	> 100 µM	–	> 100 µM	–	> 100 µM	–	> 100 µM	–	> 100 µM	–	> 100 µM	–	> 100 µM	–	> 100 µM
CSc1ccc2c(c1)N(CCC1CCCCN1C)c1ccccc1S2 (centres undefined)	4.08 µM and 1.86 µM	14.3 µM and 3.63 µM	3.16 µM and 3.05 µM	13.6 µM and 7.13 µM	3.26 µM and 3.61 µM	14.5 µM and 15.4 µM	12.7 µM and 3.23 µM	27.7 µM and 10.4 µM	7.7 µM and 4.85 µM	21.6 µM and 17.7 µM	10.3 µM and 8.49 µM	24 µM and 22.7 µM	4.27 µM and 3.63 µM	16.6 µM and 13.8 µM	11.9 µM and 10.3 µM	27.5 µM and 29.3 µM
COc1ccc(-c2nc(Nc3ccc(-c4nc5ccccc5[nH]4)cc3)nc(N3CCOCC3)n2)cc1	1.8 µM	4.28 µM	–	–	2.16 µM	5.64 µM	–	–	2.82 µM	26.5 µM	2.57 µM	9.9 µM	2.39 µM	6.66 µM	3.26 µM	10.8 µM
